Experimental data from paper PMC6271500, “Bowman-Birk Protease Inhibitor from Vigna unguiculata Seeds Enhances the Action of Bradykinin-Related Peptides” (Molecules, 2014).

Assays:
[1] = test system: bovine pancreatic trypsin; assay: Trypsin inhibition by BTCI (BAPNA substrate); type: biochemical; details: BTCI 10 µM, peptide 0–10 µM
Protocol: The inhibitory activities of BTCI against bovine pancreatic trypsin (25 kDa; A280^1% = 15.90) and chymotrypsin (24 kDa; A280^1% = 20.40) (Sigma Co.) were first determined in the absence of Bk and Bk-related peptides. Briefly, the residual enzymatic activities were assayed by mixing 40 µL of chymotrypsin (28.60 µM) or trypsin (2.57 µM) with BTCI at concentration range of 0–10 µM for trypsin and 0–40 µM for chymotrypsin at 25 °C for 15 minutes. After that, 200 µL of 0.40·mg·mL^−1 N-glutaryl-L-phenylalanine-p-nitroanilide (GPNA) in 50 mM Tris-HCl, 20 mM CaCl2, pH 7.6 for chymotrypsin assay or 0.43 mg·mL^−1 Nα-benzoyl-DL-arginine 4-nitroanilide hydrochloride (BAPNA) in 50 mM Tris-HCl, 20 mM CaCl2, pH 8.2 for trypsin assay were added. Substrate hydrolysis was done for 15 minutes and stopped by adding 30% (v/v) acetic acid. The enzymatic assays were also carried out in the presence of Bk at similar concentration of BTCI. The relative enzymatic activities were evaluated by the liberation of p-nitroanilide, which was monitored at 410 nm using a SpectraMax Plus 384 Microplate Reader spectrophotometer (Molecular Devices, Sunnyvale, CA, USA). The obtained values are an average of three independent measurements. Inhibition curves were obtained by plotting relative activities of the proteases vs. BTCI concentration in the absence or presence of Bk and Bk-related peptides. […]

[2] = Cardiovascular effects of infusion of Bk and Bk-related peptides with BTCI or vehicle in anesthetized rats; type: in vivo, male Wistar rats; details: for aortic vasodilation (change in AVC) / change in mean arterial pressure (MAP) / renal vasodilation (change in RVC): from the baseline value, mean ± SEM, 6 experiments
Protocol: All experiments were conducted on adult male Wistar rats (280–350 g). They were obtained from the central animal house of the Federal University of Goiás. Experimental procedures were designed with strict adherence to the National Health Institute Guidelines for Care and Use of Laboratory Animals as approved by the Ethics Committee, Federal University of Goiás (034/12).
On the day of experiments, the rats were anesthetized with halothane (2%–3% in 100% O2; Cristália Ltda, Itapira, SP, Brazil) prior to the catheterization of the right femoral vein and artery. After the catheter placement, the rats were removed from the halothane and the anesthesia was maintained with urethane (1.2 g·kg^−1 b.wt., i.v.; Sigma-Aldrich Co.). The trachea was cannulated to reduce airway resistance. The body temperature was kept at 37 ± 0.5 °C with a thermostatically controlled heated table.
Renal blood flow (RBF) and aortic blood flow (ABF) were measured with an ultrasonic transit-time flowmeter (Transonic Systems, Inc., Ithaca, NY, USA). Data were recorded continuously with an analog-to-digital converter (PowerLab 4/25, ML845, AD Instruments, Bella Vista, Australia). Mean arterial pressure (MAP) was determined from the pulsatile signal. Aortic vascular conductance (AVC) and renal vascular conductance (RVC) were calculated by a ratio of ABF and RBF divided by MAP, and were expressed as percentage of baseline. Increasing doses of BTCI (0.3, 3, 30 and 300 µg·kg^−1, i.v.) were infused.
Results are presented as means ± S.E.M. The effects of infusion of Bk, Bk-related peptides and BTCI on cardiovascular parameters were analyzed by one-way ANOVA. […] A value of Student’s t-test p < 0.05 was considered to denote a significant difference.

[3] = test system: guinea pig (Cavia porcellus) ileum; assay: Smooth muscle constriction force assay, guinea pig ileum
Protocol: Male guinea pigs (Cavia porcellus) weighing between 200 and 300 g and fasted for 24 h were euthanized using an overdose of anesthetic at 120 mg/kg (ketamine and xylazine). The protocol was approved by the Committee on the Ethics of Animal Experiments of the Institute of Biology, University of Brasilia (Proc. Number 737402/2008). Segments of 2 cm from the terminal portion of the ileum were removed and washed in Tyrode’s solution (g/L: 8.00 NaCl,0.20 KCl, 0.20 CaCl2, 0.21 MgCl2), and attached to a glass rod that was immersed in a physiological bath chamber with a capacity of 10 mL containing Tyrode solution at 37 °C. In the opposite region, a thread of silk was attached to the F-60 isometric transducer connected to a polygraph (NARCO Bio-Systems, Houston, TX, USA). The bath was kept aerated constantly with carbogen (95% O2 + 5% CO2). Previously, as a control, smooth muscle response was analyzed using Bk from Sigma Aldrich. Experiments were done in triplicate, and constriction force was analyzed by addition of Bk and analogues in the absence or presence of BTCI, in three concentrations: 1, 5 or 10 µM. The hypotensive effects of the complexes were also evaluated in the presence of trypsin or chymotrypsin. After each experiment, the bath solution was exchanged three times in order to remove the drug used. Statistical analysis was carried out using the Paleontological Statistics (PAST) Software Package for Education and Data Analysis. A value of Student’s t-test p < 0.05 was considered to denote a significant difference.

[4] = peptide 120 µg·kg^−1 + BTCI 3 µg·kg^−1, i.v.
[5] = peptide 120 µg·kg^−1 i.v. + BTCI 3 µg·kg^−1 i.v.
[6] = peptide 120 µg·kg^−1 i.v., without BTCI

[Val]^1[Thr]^6-bradykinyl-Gln-Ser [Bk2]
effect of peptide on BTCI inhibition of trypsin [1]: did not interfer in their activities | effect of association with BTCI on aortic vasodilation [2, 4]: potentiated | effect of association with BTCI on renal vasodilation [2, 4]: potentiated renal | aortic vasodilation (change in AVC) [2, 5]: 28% ± 2.6% | change in mean arterial pressure (MAP) [2, 5]: −12 ± 2.7 mmHg | renal vasodilation (change in RVC) [2, 5]: 29% ± 4.9% | aortic vasodilation (change in AVC) [2, 6]: 19% ± 2.7% | change in mean arterial pressure (MAP) [2, 6]: −12 ± 1.2 mmHg | renal vasodilation (change in RVC) [2, 6]: 19% ± 3.0% | contraction force relative to Bk ([3]; 10 µM, after activation by trypsin treatment): approximately 1.3 fold | smooth muscle contraction when pretreated with BTCI and serine proteases ([3]; data not shown): did not induce muscle contraction | smooth muscle contraction ([3]; free peptide, 1, 5, 10 µM, 37 °C, triplicate): unable to exert their contractive effects | smooth muscle contraction after trypsin pretreatment ([3]; peptide pretreated with trypsin, 1.0, 5.0, 10.0 µM): induced smooth muscle contraction, in a concentration-responsive manner (Figure 7), and at higher levels than Bk in free state
